Experimental data from article PMC7064328 (Environmental Health Perspectives, 2020).
Several values for one entry are separate records, joined by “and”; a condition that tells them apart may be missing. Equal values may be shown once.

What was measured:
Type in all cases: in vivo, mouse (CD-1)
Pregnant CD-1 mice = assay: Clinical chemistry of dam serum and urine; details: for ALB / ALP / ALT / AST / BUN / Chol / Cre / Glu / HDL / LDL / SDH / TBA / TP / Trig: dam serum; for Ucrea: dam urine
Procedure: Dam livers, kidneys, and placentas were trimmed and embedded by the NIEHS Mouse Embryo Phenotyping Core. Tissues collected at necropsy were fixed in 4% PFA for 72 h and paraffin embedded, and 5-μm sections were prepared and stained with hematoxylin and eosin (H&E). Pathology was evaluated and a pathology review conducted by S.A.E. Diplomate American College of Veterinary Pathologists (DACVP). Pathology reviews were conducted as an informed approach analysis [e.g., nonblinded analysis; see Sills et al. ([2019])]. Select tissue slides were scanned using the AT2 Scanner (Aperio). Images were then captured for publication using the ImageScope software; version 12.3.0.5056 (Aperio). Serum and urine obtained from dams in Block 2 were analyzed using the AU480 clinical chemistry analyzer (Beckman Coulter Inc.). Reagents and calibration standards used to measure alkaline phosphatase (ALP), alanine aminotransferase (ALT), aspartate aminotransferase (AST), blood urea nitrogen (BUN), serum creatinine, urine creatinine, glucose (Glu), total protein (TP), triglyceride (Trig), high-density lipoprotein (HDL), cholesterol (Chol), and albumin (ALB) were purchased from Beckman Coulter Inc. Reagents for sorbitol dehydrogenase (SDH), total bile acid (TBA), and micro-TP were purchased from Sekisui Diagnostics. The reagent used to measure low-density lipoprotein (LDL) was purchased form Diazyme Laboratories.

[1] = Internal dosimetry of PFOA and GenX in maternal serum, maternal liver, amniotic fluid and whole embryos (UPLC-MS/MS)
Procedure: Solid tissues were homogenized in RODI water at a ratio of approximately 1:3 tissue mass (milligrams) to liquid volume (microliters). Maternal serum, amniotic fluid, and tissue homogenates ( 25μL ) were spiked with internal standard suspended in 0.1M formic acid in a denaturation step, followed by a subsequent protein crash using ice-cold acetonitrile. Samples were vortex mixed after addition of formic acid and acetonitrile and then centrifuged at 10,000×g for 5 min. Extract supernatants were separated using a Waters ACQUITY UPLC® (Waters Corporation) fitted with a Waters ACQUITY UPLC® BEH C18 Column ( 130Å; 1.7μm; 2.1mm×50mm ). Detection was performed using a Waters Quattro Premier™ XE tandem quadrupole mass spectrometer in negative ionization mode.

maternal liver = assay: Transmission electron microscopy of dam liver; details: E17.5
Excerpt: Block 2 dam liver portions stored in McDowell and Trump’s fixative ([McDowell and Trump 1976]) were processed using a Leica EM TP processor. Briefly, samples were rinsed with buffer, postfixed in 1% osmium tetroxide in 0.1-M phosphate buffer, rinsed in distilled water, dehydrated, and embedded in Ply/Bed® 812 (Polysciences, Inc.) epoxide resin. Blocks were trimmed, and semithin sections ( ∼0.5μm ) were stained with 1% toluidine blue (Poly-scientific R&D Corp.) O in 1% sodium borate to ascertain areas of interest. Ultrathin sections ( […] ) were cut from areas of interest and placed on 200-mesh copper grids and stained with uranyl acetate and lead citrate, and digital images were captured using an Orius® SC1000 side mount camera (Gatan) attached to a Techani T12 transmission electron microscope (TEM) (FEI Company). In general, peroxisomes were smaller than mitochondria and round with a dark, electron-dense, granular matrix and surrounded by a single membrane. […] Samples were analyzed by R.D.K., Ph.D.

SMILES: O=C(O)C(F)(F)C(F)(F)C(F)(F)C(F)(F)C(F)(F)C(F)(F)C(F)(F)F [PFOA, Perfluorooctanoic acid]
- Dam serum Trig lowered vs controls (Pregnant CD-1 mice; E11.5, 1 mg/kg/d): 37%
- Dam serum Trig lowered vs controls (Pregnant CD-1 mice; E11.5, 5 mg/kg/d): 58%
- Serum Glu lower relative to controls (Pregnant CD-1 mice; E11.5, 5 mg/kg/d, p=0.06): 20%
- Dam serum Trig lower vs controls (Pregnant CD-1 mice; E17.5, 5 mg/kg/d): 66%
- LDL lower vs controls (Pregnant CD-1 mice; E17.5, 5 mg/kg/d): 50%
- ALT increase relative to controls (Pregnant CD-1 mice; Table 2 (E11.5), 5 mg/kg/d, not statistically significant): 172%
- ALB (Pregnant CD-1 mice; E11.5, 1 mg/kg/d): 2.42±0.22 (5) g/dL
- ALP (Pregnant CD-1 mice; E11.5, 1 mg/kg/d): 54.6±4.4 (5) U/L
- ALT (Pregnant CD-1 mice; E11.5, 1 mg/kg/d): 28.8±11.5 (5) U/L
- AST (Pregnant CD-1 mice; E11.5, 1 mg/kg/d): 144.6±167.6 (5) U/L
- BUN (Pregnant CD-1 mice; E11.5, 1 mg/kg/d): 15.0±2.7 (5) mg/dL
- Chol (Pregnant CD-1 mice; E11.5, 1 mg/kg/d): 68.8±18.0 (5) mg/dL
- Cre (Pregnant CD-1 mice; E11.5, 1 mg/kg/d): 0.2±0.05 (5) mg/dL
- Glu (Pregnant CD-1 mice; E11.5, 1 mg/kg/d): 278.4±27.8 (5) mg/dL
- HDL (Pregnant CD-1 mice; E11.5, 1 mg/kg/d): 34.8±10.9 (5) mg/dL
- LDL (Pregnant CD-1 mice; E11.5, 1 mg/kg/d): 12.2±1.9 (5) mg/dL
- SDH (Pregnant CD-1 mice; E11.5, 1 mg/kg/d): 8.4±7.8 (5) U/L
- TBA (Pregnant CD-1 mice; E11.5, 1 mg/kg/d): 1.5±0.58 (4) μM/L
- TP (Pregnant CD-1 mice; E11.5, 1 mg/kg/d): 4.04±0.3 (5) g/dL
- Trig (Pregnant CD-1 mice; E11.5, 1 mg/kg/d): 130.4±16.2 (5) mg/dL
- ALB (Pregnant CD-1 mice; E11.5, 5 mg/kg/d): 2.36±0.21 (5) g/dL
- ALP (Pregnant CD-1 mice; E11.5, 5 mg/kg/d): 56.6±35.6 (5) U/L
- ALT (Pregnant CD-1 mice; E11.5, 5 mg/kg/d): 70.8±16.2 (5) U/L
- AST (Pregnant CD-1 mice; E11.5, 5 mg/kg/d): 92.6±20.3 (5) U/L
- BUN (Pregnant CD-1 mice; E11.5, 5 mg/kg/d): 15.8±1.3 (5) mg/dL
- Chol (Pregnant CD-1 mice; E11.5, 5 mg/kg/d): 69.4±9.9 (5) mg/dL
- Cre (Pregnant CD-1 mice; E11.5, 5 mg/kg/d): 0.18±0.03 (5) mg/dL
- Glu (Pregnant CD-1 mice; E11.5, 5 mg/kg/d): 220.4±22.1 (5) mg/dL
- HDL (Pregnant CD-1 mice; E11.5, 5 mg/kg/d): 42.6±4.0 (5) mg/dL
- LDL (Pregnant CD-1 mice; E11.5, 5 mg/kg/d): 10.6±1.5 (5) mg/dL
- SDH (Pregnant CD-1 mice; E11.5, 5 mg/kg/d): 12.4±8.3 (5) U/L
- TBA (Pregnant CD-1 mice; E11.5, 5 mg/kg/d): 2.0±0.0 (5) μM/L
- TP (Pregnant CD-1 mice; E11.5, 5 mg/kg/d): 3.78±0.22 (5) g/dL
- Trig (Pregnant CD-1 mice; E11.5, 5 mg/kg/d): 86.4±15.8 (5) mg/dL
- ALB (Pregnant CD-1 mice; E17.5, 1 mg/kg/d): 2.04±0.09 (5) g/dL
- ALP (Pregnant CD-1 mice; E17.5, 1 mg/kg/d): 50.2±4.2 (5) U/L
- ALT (Pregnant CD-1 mice; E17.5, 1 mg/kg/d): 7.0±4.3 (5) U/L
- AST (Pregnant CD-1 mice; E17.5, 1 mg/kg/d): 73.0±14.0 (5) U/L
- BUN (Pregnant CD-1 mice; E17.5, 1 mg/kg/d): 16.4±1.7 (5) mg/dL
- Chol (Pregnant CD-1 mice; E17.5, 1 mg/kg/d): 83.8±20.0 (5) mg/dL
- Cre (Pregnant CD-1 mice; E17.5, 1 mg/kg/d): 0.2±0.01 (5) mg/dL
- Glu (Pregnant CD-1 mice; E17.5, 1 mg/kg/d): 121.0±17.3 (5) mg/dL
- HDL (Pregnant CD-1 mice; E17.5, 1 mg/kg/d): 37.2±6.2 (5) mg/dL
- LDL (Pregnant CD-1 mice; E17.5, 1 mg/kg/d): 24.0±10.7 (5) mg/dL
- SDH (Pregnant CD-1 mice; E17.5, 1 mg/kg/d): 3.4±6.1 (5) U/L
- TBA (Pregnant CD-1 mice; E17.5, 1 mg/kg/d): 3.0±1.2 (5) μM/L
- TP (Pregnant CD-1 mice; E17.5, 1 mg/kg/d): 3.9±0.11 (5) g/dL
- Trig (Pregnant CD-1 mice; E17.5, 1 mg/kg/d): 364.0±272.9 (5) mg/dL
- ALB (Pregnant CD-1 mice; E17.5, 5 mg/kg/d): 1.53±0.27 (6) g/dL
- ALP (Pregnant CD-1 mice; E17.5, 5 mg/kg/d): 74.8±23.8 (6) U/L
- ALT (Pregnant CD-1 mice; E17.5, 5 mg/kg/d): 16.8±7.7 (6) U/L
- AST (Pregnant CD-1 mice; E17.5, 5 mg/kg/d): 172.2±63.1 (6) U/L
- BUN (Pregnant CD-1 mice; E17.5, 5 mg/kg/d): 18.7±5.3 (6) mg/dL
- Chol (Pregnant CD-1 mice; E17.5, 5 mg/kg/d): 68.5±16.4 (6) mg/dL
- Cre (Pregnant CD-1 mice; E17.5, 5 mg/kg/d): 0.16±0.06 (6) mg/dL
- Glu (Pregnant CD-1 mice; E17.5, 5 mg/kg/d): 112.0±15.8 (6) mg/dL
- HDL (Pregnant CD-1 mice; E17.5, 5 mg/kg/d): 38.8±11.2 (6) mg/dL
- LDL (Pregnant CD-1 mice; E17.5, 5 mg/kg/d): 11.0±3.0 (5) mg/dL
- SDH (Pregnant CD-1 mice; E17.5, 5 mg/kg/d): 24.3±11.2 (6) U/L
- TBA (Pregnant CD-1 mice; E17.5, 5 mg/kg/d): 8.0±7.9 (6) μM/L
- TP (Pregnant CD-1 mice; E17.5, 5 mg/kg/d): 2.8±0.39 (6) g/dL
- Trig (Pregnant CD-1 mice; E17.5, 5 mg/kg/d): 159.0±65.5 (6) mg/dL
- Ucrea (Pregnant CD-1 mice; E11.5, 1 mg/kg/d): 92.0±13.1 (4) mg/dL
- Ucrea (Pregnant CD-1 mice; E11.5, 5 mg/kg/d): 50.1±33.8 (4) mg/dL
- Ucrea (Pregnant CD-1 mice; E17.5, 1 mg/kg/d): 24.7±23.1 (2) mg/dL
- Ucrea (Pregnant CD-1 mice; E17.5, 5 mg/kg/d): 11.5±5.9 (3) mg/dL
- Amniotic fluid concentration ([1]; E11.5, 1 mg/kg/d): 4.6 ± 2.8 µg/mL
- Maternal liver concentration ([1]; E11.5, 1 mg/kg/d): 48.3 ± 12.5 µg/g
- Maternal serum concentration ([1]; E11.5, 1 mg/kg/d): 25.4 ± 3.7 µg/mL
- Whole embryo concentration ([1]; E11.5, 1 mg/kg/d): 0.80 ± 0.10 µg/g
- Amniotic fluid concentration ([1]; E11.5, 5 mg/kg/d): 8.8 ± 2.7 µg/mL
- Maternal liver concentration ([1]; E11.5, 5 mg/kg/d): 151.5 ± 18.5 µg/g
- Maternal serum concentration ([1]; E11.5, 5 mg/kg/d): 117.3 ± 20.6 µg/mL
- Whole embryo concentration ([1]; E11.5, 5 mg/kg/d): 2.34 ± 0.27 µg/g and 2.34 ± 0.3 µg/g
- Female embryo concentration ([1]; E17.5, 1 mg/kg/d): 5.78 ± 0.81 µg/g
- Male embryo concentration ([1]; E17.5, 1 mg/kg/d): 5.78 ± 0.82 µg/g
- Maternal liver concentration ([1]; E17.5, 1 mg/kg/d): 181.1 ± 46.0 µg/g
- Maternal serum concentration ([1]; E17.5, 1 mg/kg/d): 18.7 ± 3.2 µg/mL
- Whole embryo concentration ([1]; E17.5, 1 mg/kg/d): 5.78 ± 0.71 µg/g
- Female embryo concentration ([1]; E17.5, 5 mg/kg/d): 16.1 ± 2.75 µg/g
- Male embryo concentration ([1]; E17.5, 5 mg/kg/d): 16.9 ± 1.88 µg/g
- Maternal liver concentration ([1]; E17.5, 5 mg/kg/d): 159.2 ± 21.7 µg/g
- Maternal serum concentration ([1]; E17.5, 5 mg/kg/d): 95.1 ± 14.1 µg/mL
- Whole embryo concentration ([1]; E17.5, 5 mg/kg/d): 16.4 ± 1.75 µg/g
- Maximum bioaccumulation in maternal liver ([1]; by E17.5, regardless of PFOA dose group): 160–180 μg PFOA/g liver
- Liver ultrastructure (TEM) (maternal liver; 1 mg/kg/d): enlarged hepatocytes with increased cytoplasmic organelles consistent with mitochondria and peroxisomes, evenly dispersed glycogen, and small vacuoles in the centrilobular regions
- Liver ultrastructure (TEM) (maternal liver; 5 mg/kg/d): abnormal ultrastructure
